Laboratory results published in patent publication US10889564B2, “Tetrahydroindazoles and medical uses thereof” (Genase Therapeutics B.V., priority 2015, dated 2021).

How the values were obtained:
ARN8 melanoma cells = assay: Sulforhodamine B assay of cancer cell growth and/or viability; assay type: cell-based; settings: ARN8; 2 μM; 72 hours; absence of excess uridine
Description: ARN8 melanoma cells are seeded at a density of 500 cells per well of a 96 well plate. Following 24 hours of incubation, cells are treated with increasing concentrations of the compound of Example 8 in the absence or presence of excess uridine (100 micromolar). Cells are incubated for 72 hours after which the growth medium is removed from the cells and replaced by […] of 1× sterile PBS and 50 μL of 40% trichloroacetic acid in dH2O. Samples are incubated at 4° C. for 1 h to fix the cells. The plate is then washed with 3 changes of water with all liquid allowed to drain from the plate. […] of 0.1% sulforhodamine B in 1% acetic acid in H2O is added to each well and incubated for 30 minutes. Excess dye is washed out with three changes of 1% acetic acid in H2O with all liquid allowed to drain from the plate. The remaining dye is solubilized in 100 microliters of 10 mM un-buffered basic Tris per well and absorbance read at 570 nm.

[1] = system: p53 synthesis in ARN8 melanoma cells; assay: p53 synthesis, 35S-Met pulse labelling and p53 immunoprecipitation; assay type: cell-based; settings: 5 h treatment, 35S-Met 30 minutes, FIG. 3
Description: Incorporation of 35S-Met in the p53 immunoprecipitate was determined by autoradiography. This experiment was performed in duplicate (Exp. 1 and Exp. 2).

[2] = system: HCT116 wtTP53, colon cancer; assay: WST-1 assay; assay type: cell-based; settings: 72 hours
Description: (§1) Adherent cell lines were cultured overnight prior to the addition of the compound of Example 1, whereas non-adherent cell lines were treated immediately after seeding. TP53 status in each cell line is indicated. All cells were grown in 10% FBS. p53 wild type or mutant status (wtTP53 or mtTP53) and tumor cell line origin are indicated. The results obtained are shown below and in FIG. 10.

A431 mtTP53, skin cancer = assay: WST-1 assay; assay type: cell-based; settings: 72 hours
Description: as §1

A375 wtTP53, melanoma = assay: WST-1 assay; assay type: cell-based; settings: 72 hours
Description: as §1

L428 mtTP53, lymphoma = assay: WST-1 assay; assay type: cell-based; settings: 72 hours
Description: as §1

Ramos mtTP53, lymphoma = assay: WST-1 assay; assay type: cell-based; settings: 72 hours
Description: as §1

[3] = system: HT29 mtTP53, colon cancer; assay: WST-1 assay; assay type: cell-based; settings: 72 hours
Description: as §1

K562 mtTP53, leukemia = assay: WST-1 assay; assay type: cell-based; settings: 72 hours
Description: as §1

U2OS wtTP53, sarcoma = assay: WST-1 assay; assay type: cell-based; settings: 72 hours
Description: as §1

NB4 mtTP53, leukemia = assay: WST-1 assay; assay type: cell-based; settings: 72 hours
Description: as §1

RKO wtTP53, colon cancer = assay: WST-1 assay; assay type: cell-based; settings: 72 hours
Description: as §1

MV4-11 wtTP53, leukemia = assay: WST-1 assay; assay type: cell-based; settings: 72 hours
Description: as §1

JVM2 wtTP53, lymphoma = assay: WST-1 assay; assay type: cell-based; settings: 72 hours
Description: as §1

ARN8s wtTP53, melanoma = assay: WST-1 assay; assay type: cell-based; settings: 72 hours
Description: TP53 status in each cell line is indicated. All cells were grown in 10% FBS. p53 wild type or mutant status (wtTP53 or mtTP53) and tumor cell line origin are indicated.

[4] = system: p21 expression in ARN8 melanoma cells; assay: Levels of p53 and downstream targets (hdm2, pig3, p21) with nutlin-3; assay type: cell-based; settings: 1 h then 2 μM nutlin-3 for 18 h, FIG. 4
Description: Levels of p53 and downstream targets hdm2, pig3 (band indicated by arrow) and p21 were determined. Levels of gapdh were used to monitor protein loading. Pig3 is a known pro-apoptotic protein.

[5] = biological target: human dihydroorotate dehydrogenase (DHODH) (Homo sapiens (Human), UniProt Q02127); assay: DHODH enzyme assay, Assay A (DCIP absorbance); assay type: biochemical; settings: 6 nM recombinant human DHODH
human dihydroorotate dehydrogenase (DHODH), sequence (Q02127 29-395): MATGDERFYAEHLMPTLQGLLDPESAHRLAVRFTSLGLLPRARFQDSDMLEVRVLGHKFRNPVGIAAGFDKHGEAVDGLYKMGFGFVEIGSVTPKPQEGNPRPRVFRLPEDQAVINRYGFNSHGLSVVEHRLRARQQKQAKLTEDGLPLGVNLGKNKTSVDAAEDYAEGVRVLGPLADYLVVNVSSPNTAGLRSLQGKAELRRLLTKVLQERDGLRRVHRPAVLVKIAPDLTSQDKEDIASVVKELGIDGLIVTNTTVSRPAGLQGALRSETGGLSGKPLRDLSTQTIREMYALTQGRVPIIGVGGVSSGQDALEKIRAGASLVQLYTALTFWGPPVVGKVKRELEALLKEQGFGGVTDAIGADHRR
Description: Inhibition of human dihydroorotate dehydrogenase (DHODH) by example compounds as described herein was determined using one of two assays as described below.
DHODH enzyme assays were performed with 6 nM recombinant human DHODH (purified essentially as described by Walse et. al., Biochemistry, 47, 8929-8936 (2008)). The reaction mixture consisted of 1 mM DL-dihydroorotic acid (#D7003, Sigma-Aldrich), 100 μM 3,4-dimethoxy-5-methyl-p-benzoquinone (#D9150, Sigma-Aldrich), and 100 μM 2,6-dichlorophenolindophenol sodium salt (DCIP) (#D1878, Sigma-Aldrich) in enzyme buffer (50 mM Tris-HCl pH 8.0, 0.1% Triton X-100, 150 mM KCl). A stock solution of 20 mM DCIP was prepared in enzyme buffer and filtered through Whatman paper just before use. Loss in absorbance by chromogen DCIP was measured at 595 nm at RT every 3 min for an hour.

[6] = system: uridine uptake in ARN8 cells; assay: Tritiated uridine uptake; assay type: cell-based; settings: 15 min preincubation, 5,6-3H-Uridine 60 sec, FIG. 7
Description: ARN8 cells were incubated with increasing concentrations of nilotinib and tritiated uridine. The amount of tritium label in cells was determined by scintillation counting. 200 000 ARN8 cells/well were seeded on 6-well plates. 24 h post-seeding, the cells were rinsed twice with transport buffer, pH 7.4 (20 mM Tris/HCl, 130 mM NaCl, 3 mM K2HPO4, 1 mM MgCl2, 5 mM Glucose) and then incubated for 15 min at 37° C. with compounds (or vehicle) diluted in transport buffer. 5,6-3H-Uridine (PerkinElmer, #NET367001MC) was added to a final concentration of 4 μCi/mL for 60 sec, and then removed with 5 quick washes with 1 mM ice-cold unlabelled uridine (Sigma, #U3003). Samples (in triplicate) were harvested in 10% SDS (Sigma) and transferred to a flexible 24-well microplate (Perkin Elmer, #1450-402). Optiphase Supermix scintillation buffer (PerkinElmer, #1200-439) was added and the counts per minute measured for 3 min.

In the case of `O=C(NC1CCCc2c1cnn2-c1ccccc1F)c1ccccn1` (centres unmarked) [Example 1, N-(1-(2-Fluorophenyl)-4,5,6,7-tetrahydro-1H-indazol-4-yl)picolinamide], the viability at 2 µM (ARN8 melanoma cells) is reported as 53%, the p53 synthesis [1] is reported as “increases p53 synthesis” and the “metabolically active cells, percentage relative to the vehicle (DMSO) control” value ([2]; 1.23 μM) is reported as 75.69%. For the same compound, the “metabolically active cells, percentage relative to the vehicle (DMSO) control” value ([2]; 3.70 μM) was 50.13%, the “metabolically active cells, percentage relative to the vehicle (DMSO) control” value ([2]; 11.11 μM) was 28.40% and the “metabolically active cells, percentage relative to the vehicle (DMSO) control” value ([2]; 33.30 μM) was 14.51%. For the same compound, the “metabolically active cells, percentage relative to the vehicle (DMSO) control” value (A431 mtTP53, skin cancer; 1.23 μM) was 76.99%, the “metabolically active cells, percentage relative to the vehicle (DMSO) control” value (A431 mtTP53, skin cancer; 3.70 μM) was 52.31% and the “metabolically active cells, percentage relative to the vehicle (DMSO) control” value (A431 mtTP53, skin cancer; 11.11 μM) was 36.84%. For the same compound, the “metabolically active cells, percentage relative to the vehicle (DMSO) control” value (A431 mtTP53, skin cancer; 33.30 μM) was 27.93%, the “metabolically active cells, percentage relative to the vehicle (DMSO) control” value (A375 wtTP53, melanoma; 1.23 μM) was 85.95% and the “metabolically active cells, percentage relative to the vehicle (DMSO) control” value (A375 wtTP53, melanoma; 3.70 μM) was 50.62%. The “metabolically active cells, percentage relative to the vehicle (DMSO) control” value (A375 wtTP53, melanoma; 11.11 μM) was 45.86%, the “metabolically active cells, percentage relative to the vehicle (DMSO) control” value (A375 wtTP53, melanoma; 33.30 μM) was 32.67% and the “metabolically active cells, percentage relative to the vehicle (DMSO) control” value (L428 mtTP53, lymphoma; 1.23 μM) was 67.78%. For the same compound, the “metabolically active cells, percentage relative to the vehicle (DMSO) control” value (L428 mtTP53, lymphoma; 3.70 μM) was 33.84%, the “metabolically active cells, percentage relative to the vehicle (DMSO) control” value (L428 mtTP53, lymphoma; 11.11 μM) was 32.76% and the “metabolically active cells, percentage relative to the vehicle (DMSO) control” value (L428 mtTP53, lymphoma; 33.30 μM) was 34.80%. The “metabolically active cells, percentage relative to the vehicle (DMSO) control” value (Ramos mtTP53, lymphoma; 1.23 μM) was 87.94%, the “metabolically active cells, percentage relative to the vehicle (DMSO) control” value (Ramos mtTP53, lymphoma; 3.70 μM) was 54.16% and the “metabolically active cells, percentage relative to the vehicle (DMSO) control” value (Ramos mtTP53, lymphoma; 11.11 μM) was 42.35%. The “metabolically active cells, percentage relative to the vehicle (DMSO) control” value (Ramos mtTP53, lymphoma; 33.30 μM) was 40.94%, the “metabolically active cells, percentage relative to the vehicle (DMSO) control” value ([3]; 1.23 μM) was 70.23% and the “metabolically active cells, percentage relative to the vehicle (DMSO) control” value ([3]; 3.70 μM) was 23.19%. The “metabolically active cells, percentage relative to the vehicle (DMSO) control” value ([3]; 11.11 μM) was 25.66%, the “metabolically active cells, percentage relative to the vehicle (DMSO) control” value ([3]; 33.30 μM) was 12.11% and the “metabolically active cells, percentage relative to the vehicle (DMSO) control” value (K562 mtTP53, leukemia; 1.23 μM) was 63.91%. For the same compound, the “metabolically active cells, percentage relative to the vehicle (DMSO) control” value (K562 mtTP53, leukemia; 3.70 μM) was 57.69%, the “metabolically active cells, percentage relative to the vehicle (DMSO) control” value (K562 mtTP53, leukemia; 11.11 μM) was 55.28% and the “metabolically active cells, percentage relative to the vehicle (DMSO) control” value (K562 mtTP53, leukemia; 33.30 μM) was 53.35%. For the same compound, the “metabolically active cells, percentage relative to the vehicle (DMSO) control” value (U2OS wtTP53, sarcoma; 1.23 μM) was 98.88%, the “metabolically active cells, percentage relative to the vehicle (DMSO) control” value (U2OS wtTP53, sarcoma; 3.70 μM) was 70.03% and the “metabolically active cells, percentage relative to the vehicle (DMSO) control” value (U2OS wtTP53, sarcoma; 11.11 μM) was 51.63%. For the same compound, the “metabolically active cells, percentage relative to the vehicle (DMSO) control” value (U2OS wtTP53, sarcoma; 33.30 μM) was 50.16%, the “metabolically active cells, percentage relative to the vehicle (DMSO) control” value (NB4 mtTP53, leukemia; 1.23 μM) was 79.47% and the “metabolically active cells, percentage relative to the vehicle (DMSO) control” value (NB4 mtTP53, leukemia; 3.70 μM) was 65.73%. For the same compound, the “metabolically active cells, percentage relative to the vehicle (DMSO) control” value (NB4 mtTP53, leukemia; 11.11 μM) was 42.77%, the “metabolically active cells, percentage relative to the vehicle (DMSO) control” value (NB4 mtTP53, leukemia; 33.30 μM) was 36.19% and the “metabolically active cells, percentage relative to the vehicle (DMSO) control” value (RKO wtTP53, colon cancer; 1.23 μM) was 83.37%. The “metabolically active cells, percentage relative to the vehicle (DMSO) control” value (RKO wtTP53, colon cancer; 3.70 μM) was 42.62%, the “metabolically active cells, percentage relative to the vehicle (DMSO) control” value (RKO wtTP53, colon cancer; 11.11 μM) was 36.36% and the “metabolically active cells, percentage relative to the vehicle (DMSO) control” value (RKO wtTP53, colon cancer; 33.30 μM) was 29.16%. The “metabolically active cells, percentage relative to the vehicle (DMSO) control” value (MV4-11 wtTP53, leukemia; 1.23 μM) was 60.26%, the “metabolically active cells, percentage relative to the vehicle (DMSO) control” value (MV4-11 wtTP53, leukemia; 3.70 μM) was 36.85% and the “metabolically active cells, percentage relative to the vehicle (DMSO) control” value (MV4-11 wtTP53, leukemia; 11.11 μM) was 19.73%. The “metabolically active cells, percentage relative to the vehicle (DMSO) control” value (MV4-11 wtTP53, leukemia; 33.30 μM) was 15.79%, the “metabolically active cells, percentage relative to the vehicle (DMSO) control” value (JVM2 wtTP53, lymphoma; 1.23 μM) was 86.30% and the “metabolically active cells, percentage relative to the vehicle (DMSO) control” value (JVM2 wtTP53, lymphoma; 3.70 μM) was 75.36%. For the same compound, the “metabolically active cells, percentage relative to the vehicle (DMSO) control” value (JVM2 wtTP53, lymphoma; 11.11 μM) was 44.68%, the “metabolically active cells, percentage relative to the vehicle (DMSO) control” value (JVM2 wtTP53, lymphoma; 33.30 μM) was 38.31% and the “metabolically active cells, percentage relative to the vehicle (DMSO) control” value (ARN8s wtTP53, melanoma; 1.23 μM) was 68.69%. For the same compound, the “metabolically active cells, percentage relative to the vehicle (DMSO) control” value (ARN8s wtTP53, melanoma; 3.70 μM) was 40.86%, the “metabolically active cells, percentage relative to the vehicle (DMSO) control” value (ARN8s wtTP53, melanoma; 11.11 μM) was 35.13% and the “nutlin-3 induced p21 expression” value [4] was “Loss of nutlin-3 induced p21 expression”.

In the case of `COC(=O)c1ccc(C(=O)NC2CCCc3c2cnn3-c2ccccc2F)nc1` (centres unmarked) [Example 7, Methyl 6-({[1-(2-fluorophenyl)-4,5,6,7-tetrahydro-1H-indazol-4-yl]amino}carbonyl)nicotinate], the viability at 2 µM (ARN8 melanoma cells) is reported as 28% and the IC50 [5] is reported as > 10 µM.

With `Cc1cn(-c2cc(NC(=O)c3ccc(C)c(Nc4nccc(-c5cccnc5)n4)c3)cc(C(F)(F)F)c2)cn1` [nilotinib] the uridine uptake [6] was “blocks uridine uptake”.

Compound `CCc1cc(C(=O)NC2CCCc3c2cnn3-c2ccc(F)cc2F)no1` (centres unmarked) [Example 10, N-[1-(2,4-difluorophenyl)-4,5,6,7-tetrahydro-1H-indazol-4-yl]-5-ethyl-3-isoxazolecarboxamide] has a viability at 2 µM (ARN8 melanoma cells) of 92% and an IC50 [5] of 2.44 µM.
